Measured values as given in ChEMBL document CHEMBL3352549, “Discovery, biological evaluation, and crystal structure of a novel nanomolar selective butyrylcholinesterase inhibitor” (J Med Chem, 2014).

Experiments:
Cholinesterase [1] = target: T1, Cholinesterase (Homo sapiens, UniProt P06276)
Description: Inhibition of recombinant human BChE by Ellman method

Acetylcholinesterase = target: T2, Acetylcholinesterase (Mus musculus, UniProt P21836); experiment: Inhibition of recombinant mouse AChE by Ellman method
T2 sequence (P21836 whole entry): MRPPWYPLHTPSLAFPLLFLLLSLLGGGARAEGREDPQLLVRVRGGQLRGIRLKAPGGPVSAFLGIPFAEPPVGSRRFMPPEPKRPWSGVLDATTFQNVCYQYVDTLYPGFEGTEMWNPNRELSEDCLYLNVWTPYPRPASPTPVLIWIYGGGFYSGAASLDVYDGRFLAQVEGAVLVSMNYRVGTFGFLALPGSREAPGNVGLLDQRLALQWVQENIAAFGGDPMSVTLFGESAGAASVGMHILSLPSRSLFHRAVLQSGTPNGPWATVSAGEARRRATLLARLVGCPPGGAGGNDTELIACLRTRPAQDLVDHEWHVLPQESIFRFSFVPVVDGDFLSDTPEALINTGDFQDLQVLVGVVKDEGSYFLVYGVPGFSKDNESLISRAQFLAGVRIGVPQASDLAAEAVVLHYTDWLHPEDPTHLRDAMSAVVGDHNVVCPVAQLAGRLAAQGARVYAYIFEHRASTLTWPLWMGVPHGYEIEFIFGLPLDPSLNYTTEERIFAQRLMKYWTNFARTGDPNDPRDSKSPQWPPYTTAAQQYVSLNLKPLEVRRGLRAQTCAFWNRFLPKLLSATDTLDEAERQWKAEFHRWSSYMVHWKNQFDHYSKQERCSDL

Cholinesterase [2] = target: T1, Cholinesterase; experiment: Inhibition of recombinant human BChE at 50 nM by stopped flow apparatus method
[3] = target: Cholinesterase (Mus musculus) (UniProt Q03311); experiment: Inhibition of recombinant mouse BChE at 10 uM by Ellman method
Sequence of Cholinesterase (Mus musculus) (Q03311 whole entry): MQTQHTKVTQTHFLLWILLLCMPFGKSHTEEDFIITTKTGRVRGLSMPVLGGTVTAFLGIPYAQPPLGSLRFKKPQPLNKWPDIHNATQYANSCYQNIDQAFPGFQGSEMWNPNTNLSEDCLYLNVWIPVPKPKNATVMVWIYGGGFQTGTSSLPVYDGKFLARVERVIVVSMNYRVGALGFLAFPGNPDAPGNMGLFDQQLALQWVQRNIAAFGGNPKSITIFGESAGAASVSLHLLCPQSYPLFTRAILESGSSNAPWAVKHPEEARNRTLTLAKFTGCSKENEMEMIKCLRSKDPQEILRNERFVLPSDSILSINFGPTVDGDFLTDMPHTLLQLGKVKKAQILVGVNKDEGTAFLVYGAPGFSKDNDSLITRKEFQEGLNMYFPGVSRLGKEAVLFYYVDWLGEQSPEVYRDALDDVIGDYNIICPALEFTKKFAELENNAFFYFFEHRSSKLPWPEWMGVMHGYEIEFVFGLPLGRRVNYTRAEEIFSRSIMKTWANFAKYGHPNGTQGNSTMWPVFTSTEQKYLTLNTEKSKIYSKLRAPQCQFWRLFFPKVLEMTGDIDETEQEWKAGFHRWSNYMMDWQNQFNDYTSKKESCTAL

SH-SY5Y [4] = experiment: Neuroprotective activity in human SH-SY5Y cells assessed as inhibition of amyloid beta(1-42)-induced neurotoxicity at 0.1 to 10 uM incubated for 48 hrs by MTS assay; format: functional, cell-based
SH-SY5Y [5] = experiment: Neuroprotective activity in human SH-SY5Y cells assessed as inhibition of amyloid beta(1-42)-induced neurotoxicity at 0.1 to 10 uM incubated for 48 hrs by LDH release assay; format: functional, cell-based
Cholinesterase [6] = target: T1, Cholinesterase; experiment: Inhibition of recombinant human BChE at 10 uM by Ellman method
[7] = Cytotoxicity against human SH-SY5Y cells assessed as reduction in cell viability at 10 uM after 48 hrs by MTS assay; format: cell-based
[8] = target: T3, Acetylcholinesterase (Mus musculus) (UniProt P21836); experiment: Inhibition of recombinant mouse AChE assessed as residual activity at 10 uM by Ellman method
T3 sequence (whole entry): T2 sequence (P21836 whole entry)

T1 sequence (P06276 whole entry): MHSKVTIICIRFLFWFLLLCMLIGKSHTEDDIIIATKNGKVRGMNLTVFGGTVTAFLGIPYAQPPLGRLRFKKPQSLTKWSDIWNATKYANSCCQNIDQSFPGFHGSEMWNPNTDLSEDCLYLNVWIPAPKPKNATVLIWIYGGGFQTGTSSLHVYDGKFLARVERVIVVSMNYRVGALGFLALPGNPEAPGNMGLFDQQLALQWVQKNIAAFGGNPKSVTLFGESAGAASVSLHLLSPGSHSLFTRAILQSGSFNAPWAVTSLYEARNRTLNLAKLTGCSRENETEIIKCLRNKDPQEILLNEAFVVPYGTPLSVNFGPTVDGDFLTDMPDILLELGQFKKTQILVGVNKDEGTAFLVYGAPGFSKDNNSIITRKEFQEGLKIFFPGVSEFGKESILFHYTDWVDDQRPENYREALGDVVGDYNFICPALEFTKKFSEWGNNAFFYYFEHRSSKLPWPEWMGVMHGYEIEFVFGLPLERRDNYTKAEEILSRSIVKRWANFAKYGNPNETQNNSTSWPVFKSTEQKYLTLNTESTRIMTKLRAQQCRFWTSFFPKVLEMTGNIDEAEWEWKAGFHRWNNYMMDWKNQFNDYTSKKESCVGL

SMILES	IC50 (Cholinesterase [1])	IC50 (Acetylcholinesterase; read-out: IC50)	Ki (Cholinesterase [2])	inhibition [3]	Activity (SH-SY5Y [4])	Activity (SH-SY5Y [5])	inhibition (Cholinesterase [6])	Activity [7]	IC50 (Acetylcholinesterase)	Activity [8]
COCCN(C[C@H]1CCCN(C2Cc3ccccc3C2)C1)C(=O)c1ccc2ccccc2c1	166 nM	110 µM	27 nM	–	–	–	–	–	–	–
COCCN(CC1CCCN(C2Cc3ccccc3C2)C1)C(=O)c1ccc2ccccc2c1 (racemic)	–	–	–	> 50%	Dose-dependent effect	Dose-dependent effect	> 50%	Non-toxic	–	–
COCCN(C[C@@H]1CCCN(C2Cc3ccccc3C2)C1)C(=O)c1ccc2ccccc2c1	13 nM	101 µM	2.71 nM	–	–	–	–	–	–	–
CCn1nc(C(=O)N2CCCC2)c2c1CCC(NCCc1nc(-c3ccccc3)cs1)C2 (centres undefined)	2150 nM	–	–	> 50%	–	–	> 50%	–	Not Active	–
CC(c1nc2ccccc2s1)N(C)C(=O)CN1CCCC1c1ccc2c(c1)OCCCO2 (centres undefined)	1360 nM	–	–	> 50%	–	–	> 50%	–	–	94%
